Results as given in patent US9018252B2, “Stable compositions of dehydroascorbic acid” (priority 2010, dated 2015).

Legend:
[1] = solid form; cited from earlier work
[2] = tested on: HSV-1, influenza virus, poliovirus; conditions: cited from earlier work; for antiviral effects in vitro: viruses such as HSV-1, influenza virus, poliovirus
human skin cells = conditions: cited from earlier work
[3] = DHAA stability testing of glycerol solution oxidized with activated charcoal and oxygen (Example 2); format: physicochemical; conditions: "100% Glycerol", activated charcoal/oxygen oxidation, room temperature, 191 days
Description: (§1) AA concentration in solution is commonly measured as the reducing activity of the solution using starch-iodine titration methods that are well-known in the art. […] This method is also well known in the art. DHAA in solution can be converted into AA by reducing agents such as dithiothreitol (DTT) or tris(2-carboxyethyl)phosphine (TCEP), and its concentration is commonly measured spectrophotometrically as the difference in absorbance of a solution subjected to reduction by DTT or TCEP versus a similar solution that is not subjected to a reducing agent. These methods are also well-known in the art, but see Deutsch for examples. In the description, claims, and the following examples, DHAA in the compositions of the invention is the vitamin C that can be measured by the difference in absorbance at 262 nm using TCEP reducing agent.
A solution of AA in pure USP glycerol was subjected to oxidizing conditions by suspending activated charcoal in the solution and then bubbling pure oxygen through the solution. Oxidation of AA during this process was monitored by starch-iodine titration. After the desired amount of AA had been oxidized, the activated charcoal was removed from the solution by centrifugation and filtration. […] The concentration of DHAA in the sample was measured by spectrometry on each testing day. […]

[4] = Absorption of AA and DHAA into skin of human volunteers after topical application (Example 5); format: in vivo; conditions: 1.4 mg/cm^2, after 4 hours
Method: This solution was applied topically to the skin of human volunteers to compare the absorption rate of AA versus DHAA. To assess permeation into the stratum corneum, the solution was diluted 1:1 with water and applied at a rate of 1.4 mg/cm^2 to delineated skin surfaces and allowed 0, 2 or 4 hours for absorption. Each skin surface was then washed with deionized water, and the skin washings were collected and measured for AA and DHAA content. The amount absorbed at 2 and 4 hours was determined by subtraction from the amount present in the 0 hour washings.
Data points are the mean+/−SD of triplicate analyses on 4 subjects. The 2 and 4 hour values are the difference as percentage from the 0 hour (baseline) values, determined by analysis of skin washings. It can be seem that after 4 hours DHAA had absorbed into the skin at a rate about 12 times greater than AA, and that the total vitamin C content of the skin was increased at a much more rapid rate than applying AA alone. (Asterisks on FIG. 21 indicate the following: * Statistically significant at P<0.05. ** Statistically significant at P<0.01).

[5] = DHAA stability testing of solutions with various AA:DHAA ratios (Example 4); format: physicochemical
Description: AA concentration in solution is commonly measured as the reducing activity of the solution using starch-iodine titration methods that are well-known in the art. […] This method is also well known in the art. DHAA in solution can be converted into AA by reducing agents such as dithiothreitol (DTT) or tris(2-carboxyethyl)phosphine (TCEP), and its concentration is commonly measured spectrophotometrically as the difference in absorbance of a solution subjected to reduction by DTT or TCEP versus a similar solution that is not subjected to a reducing agent. These methods are also well-known in the art, but see Deutsch for examples. In the description, claims, and the following examples, DHAA in the compositions of the invention is the vitamin C that can be measured by the difference in absorbance at 262 nm using TCEP reducing agent. […]
(§2) Aliquots of each of the solutions prepared above were placed in transparent, screw-capped glass vials and were stored at room temperature. […] The concentration of DHAA in each sample was measured by spectrometry on each testing day. The initial DHAA concentration of each solution was recorded and assigned a value of 100% (Day 0), and the concentration on each subsequent stability test day was calculated as the percent remaining of the initial concentration.

[6] = DHAA stability in polyol solutions (general statements); format: physicochemical
[7] = DHAA stability testing of propylene glycol/water solutions oxidized with Fenton's Reagent (Example 3); format: physicochemical; conditions: room temperature
Description: as §1
AA was dissolved in purified water to give a highly concentrated solution, and then sufficient 30% hydrogen peroxide was added to oxidize about half of the AA. Iron to catalyze the reaction was provided by addition of ferrous sulfate. Oxidation of the AA was monitored by spectrometry until the expected amount of AA had been oxidized. This solution was labeled “100% Water.” Portions of this solution were combined with portions of pure, USP grade propylene glycol to produce solutions of “97% Propylene Glycol,” “95% Propylene Glycol,” “90% Propylene Glycol,” “80% Propylene Glycol,” “70% Propylene Glycol,” and “50% Propylene Glycol.” For example, 3 parts by volume of the “100% Water” solution were combined with 97 parts by volume propylene glycol to yield the “97% Propylene Glycol” solution.
as §2, with “translucent,” for “transparent,”, “polyethylene” for “glass”

[8] = DHAA stability testing of ozone-oxidized glycerol/water solutions (Example 1); format: physicochemical
Description: as §1
A 15% AA solution in water was prepared by adding 15 grams AA per 100 mL purified water with stirring. A 15% solution of AA in glycerol was prepared by adding 15 grams AA per 100 mL pure USP glycerol and stirring with heat. A corona-discharge type ozone generator with feed-gas of pure oxygen was used to supply an oxidizing gas containing about 5% ozone, and each of the 15% AA solutions was subjected to oxidizing conditions by bubbling the oxidizing gas through the solution using a glass diffuser. The progress of AA oxidation in each solution was monitored by the disappearance of reducing activity as measured by starch-iodine titration. Each solution was subjected to the oxidizing conditions until all (>99%) of the original reducing activity had disappeared. The solution made with pure glycerol was labeled “100% Glycerol,” and the solution made with purified water was labeled “100% Water.” Portions of these two solutions were combined to produce solutions of various glycerol concentrations by weight, specifically “99% Glycerol,” “98% Glycerol,” “97% Glycerol,” “96% Glycerol,” “95% Glycerol”, “90% Glycerol,” and “50% Glycerol.” For example, 99 parts by weight of “100% Glycerol” was combined with 1 part by weight “100% Water” to produce the “99% Glycerol” solution.
Aliquots of each of the solutions prepared above were placed in translucent, screw-capped polyethylene vials and were stored at room temperature. No attempt was made to further protect the vials from ambient indoor light, and each vial contained a headspace of normal air. Each vial was periodically opened to remove a sample for stability testing over the next 229 days. The concentration of DHAA in each sample was measured by spectrometry on each testing day. The initial DHAA concentration of each solution on Day 1 was recorded and assigned a value of 100%, and the concentration on each subsequent stability test day was calculated as the percent remaining of the initial concentration.

SMILES | ease of dissolving the solid in water, AA compared with DHAA [1] | antiviral effects in vitro [2] | level absorbed into cells, DHAA relative to AA (human skin cells) [times] | speed of absorption into cells, DHAA relative to AA (human skin cells) | DHAA stability [3] | rate of absorption into the skin, DHAA relative to AA [4] | initial amount of DHAA remaining ([5]; "Control": 100% water, initial AA:DHAA about 1:1, room temperature, after 3 days) | DHAA stability ([5]; polyol (100% glycerin) solutions with AA:DHAA ratios between 2:1 and 99:1, room temperature, 30 days) | antiviral effects of DHAA compared with AA ([2]; in vitro) | DHAA stability ([6]; polyol solutions with high water content (water to glycol/polyol at least 1:1)) | DHAA stability ([6]; pure polyol solvents and solutions with polyol content greater than about 50 percent) | initial amount of DHAA remaining ([7]; "100% Water" solution (Fenton's Reagent), after 5 days) | DHAA concentration over time ([7]; many of the propylene glycol solutions, 31 days) | DHAA stability ([7]; solutions containing high concentrations of propylene glycol, 31 days) | DHAA stability compared with water ([8]; 50% glycerol concentration, room temperature) | initial amount of DHAA remaining ([8]; "100% Water" solution, room temperature, tested at 20 days) | initial DHAA concentration remaining ([8]; pure glycerol ("100% Glycerol"), approximately 8 months of storage at room temperature) | DHAA stability ([8]; solutions containing high concentrations of glycerol, room temperature, up to 229 days)
O=C1O[C@H]([C@@H](O)CO)C(O)=C1O [AA, ascorbic acid] | far more easily dissolved | antiviral effects | – | – | – | – | – | – | – | – | – | – | – | – | – | – | – | –
O=C1O[C@H]([C@@H](O)CO)C(=O)C1=O [DHAA, dehydroascorbic acid] | – | antiviral effects | 2 | up to 5 times | excellent long-term stability | about 12 times | less than 20% | preserved very well | much stronger | not stable | stable | less than 20% | increased significantly | preserved very well | only minor improvement | less than 10% | greater than 80% | preserved very well
